Several values for one entry are separate records, joined by “and”; a condition that tells them apart may be missing. Identical values can stand only once.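 Five compound concentrations were applied to cells in 96-well plates for 48 hours; endpoints were derived by simple linear interpolation of the resulting dose-response curve. GI50 marks 50% less growth. Definition used: TGI = concentration required for complete inhibition of growth.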
Columns and labels:
Test in all cases: DTP human tumour cell line panel, 48 h
[1] = test system: SF-295 CNS
[2] = test system: UACC-62 melanoma
[3] = test system: OVCAR-8 ovarian
[4] = test system: UACC-257 melanoma
[5] = test system: SK-MEL-28 melanoma
[6] = test system: TK-10 renal
[7] = test system: SK-MEL-5 melanoma
[8] = test system: HS 578T breast
[9] = test system: SR leukemia
[10] = test system: ACHN renal

Compound	GI50 [1] [nM]	TGI [1]	GI50 [2] [nM]	TGI [2] [µM]	GI50 [3] [nM]	TGI [3]	GI50 [4] [nM]	TGI [4] [µM]	GI50 [5] [nM]	TGI [5]	GI50 [6] [nM]	TGI [6] [µM]	GI50 [7] [nM]	TGI [7] [µM]	GI50 [8] [nM]	TGI [8]	GI50 [9] [nM]	TGI [9] [µM]	GI50 [10] [nM]	TGI [10] [µM]
CCCCC[C@H]1C/C=C2/C(=O)C=C[C@@H]2C/C=C\CCCC(=O)O[C@@H](CCCCC)C/C=C2/C(=O)C=C[C@@H]2C/C=C\CCCC(=O)O1	506	1.29 µM	253	0.783	112	2.7 µM	531	1.3	196	0.675 µM	582	1.31	414	0.791	1280	10.1 µM	82.5	0.52	373	0.755
COc1cc(Nc2c(C#N)cnc3cc(OCCCN4CCN(C)CC4)c(OC)cc23)c(Cl)cc1Cl	7550	21 µM	2480	7.01	2350	14.4 µM	1760	3.46	2130	5.08 µM	469	11.3	2090	5.71	1600	26 µM	1350	4.51	317	9.7
COC1/C=C/C(C)C(C(C)C(OC)C(C)CCC(=O)C(C)C(C/C=C/N(C)C=O)OC)OC(=O)/C=C/C=C(\C)CC(OC)CC2=CC(=O)O[C@H](C2)C(C)C(OC)CC(OC)/C=C/C(C)C(OC)C1 (some centres undefined)	27.7	0.159 µM and 0.0165 µM	51.5		22.7	0.0768 µM and 0.196 µM		0.0257	41.3	0.298 µM and 0.0326 µM	17.4	0.0729	113		29.7	0.071 µM and 0.0601 µM	3.11		28.2	
O=CN/C=C/c1cccc(O)c1		> 63.1 µM		63.3		> 96.1 µM		> 89.2		> 100 µM		> 100		> 75.6		> 95.1 µM		> 75.2		84.6
Nc1nc(N)c2nc(CNc3ccc(C(=O)NC(CC(=O)O)C(=O)O)cc3)cnc2n1 (centres undefined)	508	> 34.6 µM	3090	> 100	589	> 100 µM	> 33800	> 100	> 100000	> 100 µM	1710	> 100	3330	> 100	59200	> 100 µM	267	> 100	2450	> 100
COC1=CC(c2ccc[nH]2)=N/C1=C\c1[nH]c(C)c(C(=O)CCCCC(=O)NC(C)(C)C)c1C	2170	6.66 µM	3590	10.8	2250	5.45 µM	16000	35.8	1590	3.2 µM	1390	3.41	1970	5.24	1750	4.26 µM	395	2.35	1700	3.7
CCC1CN2C(=N1)c1ccccc1-c1cc(Cl)ccc12 (centres undefined)	3910	31.3 µM	1760	5.17	3320	18.4 µM	2960	10.3	4970	18.4 µM	4790	32.8	2030	4.69	6580	34.5 µM	1510	4.53	1750	4.21
CNCCCn1c2c(c3ccc([N+](=O)[O-])cc3c1=O)C(=O)c1cc(OC)cnc1-2	31.9	0.193 µM	20	0.122	86.1	1.81 µM	175	0.953	387	2.1 µM	317	1.5	107	0.279	1170	5.27 µM	12.3	1.75	36.1	0.149
CC1CC2OC(=O)C(C)C2CC2(C)C(OC3OC(CO)C(O)C(O)C3O)OCCC12 (centres undefined)		> 100 µM		30.6		> 100 µM		> 100		> 100 µM		> 100		> 100		> 100 µM		> 100		> 100
CCn1cnc(C[C@H](NC(=O)[C@@H](NC(=O)Nc2cc(C(F)(F)F)cc(C(F)(F)F)c2)C(C)C)C(=O)OC)c1	> 10000	> 10 µM	6450	> 10	1950	3.74 µM	> 10000	> 10	1980	4.28 µM	1880	3.89	4310	> 10	2180	6.11 µM	2380	7.86	5940	> 10
O=C(N/C(=C/c1ccc(Cl)cc1Cl)c1nc2ccccc2s1)c1ccccc1		26.5 µM		30.2		47.4 µM		31.6		34.2 µM		42.8		26.4		44.3 µM		> 100		19.5
C=C1/C(=C\C=C2/CCC[C@]3(C)[C@@H]([C@H](C)CCCC(C)(C)O)CC[C@@H]23)C[C@@H](OC(=O)CBr)C[C@@H]1O	6810	20.3 µM	3290	9.84	2120	30.5 µM	9840	26.8	4950	10.9 µM	6880	21.6	2460	6.41	1790	8.12 µM	90.2	1.5	709	5.13
COc1cccc(-c2nn(-c3ccccc3)cc2-c2ccnc(NCCCNC(=O)Nc3ccc(Cl)c(Cl)c3)c2)c1	2380	6.43 µM	1910	4	3220	13.4 µM	2050	5.38	1930	4.16 µM	4510	17.1	1750	3.32	2350	7.53 µM	1730	4.62	4230	22.4
COc1cccc(C2=C(c3c(C)n(C)c4ccccc34)C(=O)NC2=O)c1	> 25000	> 25 µM	12300	> 25	> 25000	> 25 µM	> 25000	> 25	24900	> 25 µM	24200	> 25	9810	> 25	12100	> 25 µM	11800	> 25	> 25000	> 25
COc1cccc2c1ccc1nc3cccc(C(=O)N[C@H](C)CN(C)C)c3nc12	58.6	2.58 µM	44.7	0.198	52.8	9.5 µM	160	0.659	221	1.51 µM	76.2	0.512	125	0.342	166	3.42 µM	31.5		42.6	10.6
COc1ccc(C2CC(C)(O)Oc3cc4c(cc32)OCO4)cc1 (centres undefined)		> 100 µM		> 100		> 100 µM		> 100		> 100 µM		> 100		69		97.9 µM		> 78.9		> 100

— PubChem BioAssay (NCI)
